Tests used:
Pythium ultimum = assay: Amended agar assay; assay type: cell-based; conditions: Globisporangium ultimum; potato dextrose agar amended with compound at 2 ppm, 18° C., 2 to 7 days; read-out: % control Pythium ultimum (% reduction in colony growth compared to the control plate)
Protocol: Amended Agar Assay Testing was carried out on potato dextrose agar (PDA) amended with each compound at a test concentration of 2 ppm. Amended agar was poured into three replicate 9 cm petri dishes. Each replicate dish was inoculated in the centre with a 5 mm agar plug taken from the leading edge of a culture aged between 2 and 7 days old; the age of the culture was dependent on the growth rate of the pathogen being tested. The test pathogen was Pythium ultimum. Plates were incubated at 18° C. and the diameter of each colony measured before growth on the fastest growing plate reached the plate edge. This varied between 2 and 7 days depending on the growth rate of test pathogens. The % reduction in colony growth compared to the control plate was calculated. The results are provided in Table 1, in which D represents no control detected at this concentration; C represents up to 50% control; B from 50 to 99% control; and A represents a control of greater than 99%, i.e. no detectable colony growth.

Phytophthora cactorum = assay: 96 well plate test; assay type: cell-based; conditions: Phytophthora cactorum; agar amended to 2, 0.2, 0.02 and 0.002 ppm, 18° C., assessed after 2 to 3 days
Protocol: Compounds were screened in 96 well plates with 10 compounds per plate. Each compound was screened using agar amended to 2, 0.2, 0.02 and 0.002 ppm, with proline at 50 and 10 ppm and 0.2% DMSO used as controls. Each test concentration and standard was replicated twice on a plate. Compounds were screened against Phytophthora cactorum. The agar used in the test is a 1% potato dextrose agar. 1000 spores/mL agar were added to the appropriate agar.
A ×10 stock solution in 2% DMSO was produced for each dose i.e. 20, 2, 0.2 and 0.02 ppm, and 10 μl of this added to the appropriate wells on the plate. An equivalent amount of 2% DMSO and proline stock at 500 and 100 ppm were added for the controls. To each well 90 μl of the appropriate agar spore suspension was added to give the required final well concentrations. Plates were incubated at room temperature (18° C.) and assessed after 2 to 3 days. The amount of pathogen growth in each well was compared to the DMSO controls and an EC50 concentration was calculated. The results are provided in Table 1 in which G represents no control detected at 2 ppm, F represents an EC50 of ≥2 ppm, and E represents an EC50 of less than 2 ppm.

EC50 (Phytophthora cactorum) [µg/mL] | Structure (SMILES) | inhibition of growth at 2 ppm (Pythium ultimum) [%]
< 2 | CC(C)COC(=O)Nc1cccc(COc2nc3c(-c4ccccc4)cccc3n2-c2nnnn2C)n1 [Compound 46] | > 99
< 2 | CC(C)COC(=O)Nc1cccc(COc2nc3c(C4CC4)cccc3n2-c2nnnn2C)n1 [Compound 47] | > 99

— patent US20210206744A1, “BENZIMIDAZOLE COMPOUNDS AS AGRICULTURAL CHEMICALS” (REDAG CROP PROTECTION LTD, priority 2017, published 2021)
